Laboratory results taken from US20110311657A1, “Use of a Neuroprotective Extract and Pharmaceutical Preparation Thereof” (Universiti Putra Malaysia, priority 2009, published 2011).

How the values were obtained:
Type in all cases: in vivo, rat
[1] = system: brain superoxide dismutase (SOD); experiment: Brain superoxide dismutase (SOD) activities in normal and NO deficient rats
[2] = system: hippocampal dentate gyrus (DG) granule cells; experiment: Neuron viability in hippocampal dentate gyrus of normal and nitric oxide (NO) deficient rats; settings: nitric oxide (NO) deficient rats, 12-week L-NAME administration; FIG. 1c
Description: Neuroprotective activities of polyphenol-rich palm leaves extract and captopril were evaluated in normal and nitric oxide (NO) deficient rats by assessing neuron viability of three subfields in the hippocampus; CA1. CA3 and DG. […] The viability values of all 3 normal groups were similar. […] CA3 and DG of the hippocampus, and that co-administration with palm leaves extract attenuated this effect more effectively than with captopril. The pronounced loss of neurons with L-NAME administration caused the impairment in acquisition, but not retention, of spatial memory in the radial-arm maze task and the Morris water maze task. The neuroprotective effect of palm leaves extract was not significant in normal adult rats where loss of neurons have not occurred.

[3] = system: hippocampal CA3 pyramidal cells; experiment: Neuron viability in hippocampal CA3 of normal and nitric oxide (NO) deficient rats; settings: nitric oxide (NO) deficient rats, 12-week L-NAME administration; FIG. 1b
Description: Neuroprotective activities of polyphenol-rich palm leaves extract and captopril were evaluated in normal and nitric oxide (NO) deficient rats by assessing neuron viability of three subfields in the hippocampus; CA1. CA3 and DG. […] No significant difference in viability was observed between all 3 groups of normal rats. […] CA3 and DG of the hippocampus, and that co-administration with palm leaves extract attenuated this effect more effectively than with captopril. The pronounced loss of neurons with L-NAME administration caused the impairment in acquisition, but not retention, of spatial memory in the radial-arm maze task and the Morris water maze task. The neuroprotective effect of palm leaves extract was not significant in normal adult rats where loss of neurons have not occurred.

[4] = system: brain malondialdehyde (MDA); experiment: Brain malondialdehyde (MDA) concentrations in normal and NO deficient rats; settings: normal rats, FIG. 2d
brain catalase = experiment: Brain catalase in normal and NO deficient rats; settings: normal rats, FIG. 2c
[5] = system: hippocampal CA1 pyramidal cells; experiment: Neuron viability in hippocampal CA1 of normal and nitric oxide (NO) deficient rats; settings: for viable pyramidal cells in CA1: nitric oxide (NO) deficient rats, 12-week L-NAME administration, FIG. 1a
Description: Neuroprotective activities of polyphenol-rich palm leaves extract and captopril were evaluated in normal and nitric oxide (NO) deficient rats by assessing neuron viability of three subfields in the hippocampus; CA1. CA3 and DG. […] CA3 and DG of the hippocampus, and that co-administration with palm leaves extract attenuated this effect more effectively than with captopril. The pronounced loss of neurons with L-NAME administration caused the impairment in acquisition, but not retention, of spatial memory in the radial-arm maze task and the Morris water maze task. The neuroprotective effect of palm leaves extract was not significant in normal adult rats where loss of neurons have not occurred.

SMILES	increase of superoxide dismutase (SOD) activities compared with L-NAME treated animals ([1]; nitric oxide (NO) deficient rats, FIG. 2a) [%]	superoxide dismutase (SOD) activity ([1]; normal rats)	viable granule cells in dentate gyrus (DG) / neurons protected from degeneration [2] [%]	CA3 pyramidal cells viability [3] [%]	malondialdehyde (MDA) level [4]	catalase activity compared to control (brain catalase)	viable pyramidal cells in CA1 [5]	viable pyramidal cell count in CA1 compared to control ([5]; normal rats)	superoxide dismutase (SOD) activity ([1]; L-NAME administration alone, FIG. 2a)
C[C@H](CS)C(=O)N1CCC[C@H]1C(=O)O [captopril]	51	maintaining	34	35	maintaining	depleted significantly	partial neuroprotection	no significant change	–
COC(=O)[C@@H](N)CCCNC(=N)N[N+](=O)[O-] [L-NAME]	–	–	–	15	–	–	40%	–	decreased
